# pKi: −log10 of the molar value. Structures can show the parent of a compound that is named as a salt.
# Target: T1, Human Histamine H3 Receptor (Homo sapiens, UniProt Q9Y5N1)
# T1 construct: expressed in transfected cells; host or cells: HEK293T cells, stably transfected; membrane preparation
# Assay: Methyl histamine binding in human histamine H3 receptor cell line
# Conditions: membranes of stably transfected HEK293T cells; radioligand 1 nM; Ki from IC50 by Cheng-Prusoff
# Experimental: Evaluation of Methyl Histamine Binding in Human Histamine H3 Receptor Cell Line
# The affinity of test compounds for the histamine 3 (H3) receptor is evaluated in the following manner. Stably transfected HEK293T cells are grown in DMEM containing 10% heat inactivated FBS and G-418 (500 ug/ml). Cells are scraped from the plate, transferred to centrifuge tubes, washed one time in PBS by centrifugation in a Sorvall RT7 Plus centrifuge (2000 rpm 10 minutes, 4° C.). The resulting pellets are stored at −80° C. until ready for use. Cells are re-suspended in buffer (50 mM Tris pH=7.5) and placed in a Dounce homogenizer, douncing ten times to homogenize cells. The homogenate is spun down by centrifugation (Sorvall RT7 Plus, 1800 rpm 10 minutes, 4° C.). The supernatant is placed in a Corex tube and spun down by centrifugation (Sorvall RC 5c Plus, 17,000 rpm 20 minutes, 4° C.). The pellet is resuspended in buffer (50 mM Tris, pH 7.5). Protein concentration (ug/ul) is determined using the Micro-BCA Protein Determination. The binding assay is set up in a 96 well microtiter plate in a total volume of 250 uL. Non-specific binding is determined in the presence of 10 uM clobenpropit. The final radioligand concentration is 1 nM. The test compound is serially diluted using the Beckman Biomek2000 to a final approximate range of 100 uM to 100 pM. Membranes are suspended in buffer, homogenized in 2 bursts of ten seconds using a Vitris mechanical homogenizer set at power setting 5. Ten μg of membranes are added to each well. Following a one hour incubation at 30° C., the reaction is terminated by the addition of ice cold buffer and rapid filtration with a Packard Filtermate Harvester through a GF/B filter pre-soaked with 1% PEI for one hour. The plate is dried for one hour at 37° C. and 60 μL Microscint Scintillant is added to each well. The CPM per well is measured on a Packard Top Count NXT. Ki values are determined in nM. The Ki is calculated from the IC50 (i.e. the concentration of competing ligand which displaces 50% of the specific binding of the radioligand). CPM values are expressed as % specific binding and plotted vs compound concentration. A curve is fitted using a four-parameter logistic fit and the IC50 value is determined. The Ki is calculated from this using the Cheng-Prusoff equation: […]=IC50/1+(L/Kd) where L=concentration of free radioligand used in the assay, and Kd is the dissociation constant of the radioligand for the receptor. L is determined for each experiment by counting an aliquot of the diluted radioligand (corresponding to that added to each well) and the Kd has previously been determined under identical conditions for this cell line/radioligand.
# T1 sequence (Q9Y5N1 whole entry): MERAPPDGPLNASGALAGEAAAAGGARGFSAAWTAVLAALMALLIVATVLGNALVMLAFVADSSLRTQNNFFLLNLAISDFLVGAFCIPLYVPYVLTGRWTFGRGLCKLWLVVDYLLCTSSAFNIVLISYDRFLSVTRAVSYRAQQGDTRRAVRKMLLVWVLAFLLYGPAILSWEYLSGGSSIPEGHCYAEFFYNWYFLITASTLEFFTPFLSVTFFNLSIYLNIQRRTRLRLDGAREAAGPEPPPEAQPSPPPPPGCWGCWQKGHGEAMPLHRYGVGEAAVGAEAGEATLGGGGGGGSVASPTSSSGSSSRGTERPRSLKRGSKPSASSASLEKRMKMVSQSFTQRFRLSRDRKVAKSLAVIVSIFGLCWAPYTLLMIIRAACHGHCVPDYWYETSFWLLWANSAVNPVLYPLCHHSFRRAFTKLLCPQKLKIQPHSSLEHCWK
row,pKi,Structure (SMILES)
1,7.00 to 7.30,"O=C(O)c1ccc(Oc2ccc3c(c2)CCN(C2CCN(C4CCC4)CC2)C3=O)cc1 [Example 2, 4-{[2-(1-cyclobutylpiperidin-4-yl)-1-oxo-1,2,3,4-tetrahydroiso-quinolin-6-yl]oxy}benzoic acid]"
2,7.60 to 8.00,"COC(=O)c1ccc(COc2ccc3c(c2)CCN(C2CCN(C4CCC4)CC2)C3=O)cc1 [Example 13, methyl 4-({[2-(1-Cyclobutylpiperidin-4-yl)-1-oxo-1,2,3,4-tetrahydroisoquinolin-6-yl]oxy}methyl)benzoate]"
3,≥ 8.00,"O=C(c1ccc(-c2ccc3c(c2)CCN([C@@H]2CCN(C4CCC4)C2)C3=O)cc1Cl)N1CCCC1 [Example 49, 6-[3-chloro-4-(pyrrolidin-1-ylcarbonyl)phenyl]-2-[(3R)-1-cyclobutylpyrrolidin-3-yl]-3,4-dihydroisoquinolin-1(2H)-one]"
4,≥ 8.00,"CNC(=O)c1ccc(-c2ccc3c(c2)CCN([C@@H]2CCN(C4CCCC4)C2)C3=O)cc1 [Example 41, 4-{2-[(3R)-1-cyclopentylpyrrolidin-3-yl]-1-oxo-1,2,3,4-tetrahydroisoquinolin-6-yl}-N-methylbenzamide]"
5,7.30 to 7.60,"O=C(c1ccc2c(c1)CCN([C@@H]1CCN(C3CCC3)C1)C2=O)N1CCCC1 [Example 87, 2-[(3R)-1-cyclobutylpyrrolidin-3-yl]-6-(pyrrolidin-1-ylcarbonyl)-3,4-dihydroisoquinolin-1(2H)-one hydrochloride]"
6,≥ 8.00,"CCNC(=O)c1ccc(Oc2ccc3c(c2)CCN([C@@H]2CCN(C4CCC4)C2)C3=O)cc1 [Example 34, 4-({2-[(3R)-1-cyclobutylpyrrolidin-3-yl]-1-oxo-1,2,3,4-tetrahydroisoquinolin-6-yl}oxy)-N-ethylbenzamide]"
7,≥ 8.00,"CCNC(=O)c1ccc(COc2ccc3c(c2)CCN(C2CCN(C4CCC4)CC2)C3=O)cc1 [Example 17, 4-({[2-(1-Cyclobutylpiperidin-4-yl)-1-oxo-1,2,3,4-tetrahydroisoquinolin-6-yl]oxy}methyl)-N-ethylbenzamide]"
8,7.00 to 7.30,"N#Cc1ccc(-c2ccc3c(c2)CN(C2CCN(CC4CC4)CC2)C3=O)cc1 [Example 26, 4-{2-[1-(Cyclopropylmethyl)piperidin-4-yl]-1-oxo-2,3-dihydro-1H-isoindol-5-yl}benzonitrile]"
9,≥ 8.00,"O=C(c1ccc(-c2ccc3c(c2)CN([C@@H]2CCN(C4CCC4)C2)C3=O)cc1)N1CCCC1 [Example 92, (R)-2-(1-cyclobutylpyrrolidin-3-yl)-5-(4-(pyrrolidine-1-carbonyl)-phenyl)isoindolin-1-one hydrochloride]"
10,< 7.00,"CN1CCC(N2Cc3cc(-c4ccc(C#N)cc4)ccc3C2=O)CC1 [Example 23, hydrochloride]"
11,≥ 8.00,"CNC(=O)c1ccc(Oc2ccc3c(c2)CCN([C@@H]2CCN(C4CCCC4)C2)C3=O)cc1 [Example 37, 4-({2-[(3R)-1-cyclopentylpyrrolidin-3-yl]-1-oxo-1,2,3,4-tetrahydroisoquinolin-6-yl}oxy)-N-methylbenzamide]"
12,≥ 8.00,"CN(C)C(=O)c1ccc(-c2ccc3c(c2)CCN([C@@H]2CCN(C4CCC4)C2)C3=O)cc1 [Example 46, 4-{2-[(3R)-1-cyclobutylpyrrolidin-3-yl]-1-oxo-1,2,3,4-tetrahydroisoquinolin-6-yl}-N,N-dimethylbenzamide]"
13,7.30 to 7.60,"O=C(c1ccc(-c2ccc3c(c2)CCN([C@@H]2CCN(Cc4cccs4)C2)C3=O)cc1)N1CCCC1 [Example 62, 6-[4-(pyrrolidin-1-ylcarbonyl)phenyl]-2-[(3R)-1-(thiophen-2-ylmethyl)pyrrolidin-3-yl]-3,4-dihydroisoquinolin-1(2H)-one]"
14,7.60 to 8.00,"O=C(NC1CCCC1)c1ccc2c(c1)CCN([C@@H]1CCN(C3CCC3)C1)C2=O [Example 88, 2-[(3R)-1-cyclobutylpyrrolidin-3-yl]-N-cyclopentyl-1-oxo-1,2,3,4-tetrahydroisoquinoline-6-carboxamide hydrochloride]"
15,7.60 to 8.00,"NC(=O)c1ccc(Oc2ccc3c(c2)CCN(C2CCN(C4CCC4)CC2)C3=O)cc1 [Example 3, 4-{[2-(1-cyclobutylpiperidin-4-yl)-1-oxo-1,2,3,4-tetrahydroiso-quinolin-6-yl]oxy}benzamide Hydrochloride]"
16,≥ 8.00,"O=C(c1ccc(COc2ccc3c(c2)CCN(C2CCN(C4CCC4)CC2)C3=O)cc1)N1CCCC1 [Example 20, 2-(1-Cyclobutylpiperidin-4-yl)-6-{[4-(pyrrolidin-1-ylcarbonyl)benzyl]oxy}-3,4-dihydroisoquinolin-1(2H)-one]"
17,≥ 8.00,"O=C(c1ccc(-c2ccc3c(c2)CCN([C@@H]2CCN(Cc4ccoc4)C2)C3=O)cc1)N1CCCC1 [Example 60, 2-[(3R)-1-(furan-3-ylmethyl)pyrrolidin-3-yl]-6-[4-(pyrrolidin-1-ylcarbonyl)phenyl]-3,4-dihydroisoquinolin-1(2H)-one]"
18,≥ 8.00,"CN(C)C(=O)c1ccc(-c2ccc3c(c2)CCN([C@@H]2CCN(C4CCC4)C2)C3=O)c(F)c1 [Example 78, 4-{2-[(3R)-1-cyclobutylpyrrolidin-3-yl]-1-oxo-1,2,3,4-tetrahydroisoquinolin-6-yl}-3-fluoro-N,N-dimethylbenzamide]"
19,7.00 to 7.30,"O=C(O)c1ccc(Oc2ccc3c(c2)CCN([C@@H]2CCN(C4CCCC4)C2)C3=O)cc1 [Example 36, (R)-4-(2-(1-cyclopentylpyrrolidin-3-yl)-1-oxo-1,2,3,4-tetrahydro-isoquinolin-6-yloxy)benzoic acid]"
20,≥ 8.00,"CN(C)C(=O)c1ccc(COc2ccc3c(c2)CCN(C2CCN(C4CCC4)CC2)C3=O)cc1 [Example 18, 4-({[2-(1-Cyclobutylpiperidin-4-yl)-1-oxo-1,2,3,4-tetrahydroisoquinolin-6-yl]oxy}methyl)-N,N-dimethylbenzamide]"
21,7.60 to 8.00,"N#Cc1ccc(-c2ccc3c(c2)CN(C2CCN(C4CCCC4)CC2)C3=O)cc1 [Example 29, 4-[2-(1-Cyclopentylpiperidin-4-yl)-1-oxo-2,3-dihydro-1H-isoindol-5-yl]benzonitrile]"
22,< 7.00,"O=C(c1ccc(-c2ccc3c(c2)CCN([C@@H]2CCN(Cc4ccco4)C2)C3=O)cc1)N1CCCC1 [Example 61, 2-[(3R)-1-(furan-2-ylmethyl)pyrrolidin-3-yl]-6-[4-(pyrrolidin-1-ylcarbonyl)phenyl]-3,4-dihydroisoquinolin-1(2H)-one]"
23,≥ 8.00,"O=C(c1ccc(-c2ccc3c(c2)CCN(C2CCN(C4CCC4)CC2)C3=O)cc1)N1CCCC1 [Example 65, 2-(1-cyclobutylpiperidin-4-yl)-6-[4-(pyrrolidin-1-ylcarbonyl)phenyl]-3,4-dihydroisoquinolin-1(2H)-one]"
24,< 7.00,"CC(C)N1CCC[C@@H](N2CCc3cc(-c4ccc(C(=O)N5CCCC5)cc4)ccc3C2=O)C1 [Example 72, 2-[(3R)-1-isopropylpiperidin-3-yl]-6-[4-(pyrrolidin-1-ylcarbonyl)phenyl]-3,4-dihydroisoquinolin-1(2H)-one]"
25,7.60 to 8.00,"CNC(=O)c1ccc(-c2ccc3c(c2)CN([C@@H]2CCN(C4CCC4)C2)C3=O)cc1 [Example 91, (R)-4-(2-(1-cyclobutylpyrrolidin-3-yl)-1-oxoisoindolin-5-yl)-N-methylbenzamide hydrochloride]"
26,7.60 to 8.00,"O=C(O)c1ccc(COc2ccc3c(c2)CCN(C2CCN(C4CCC4)CC2)C3=O)cc1 [Example 14, 4-({[2-(1-cyclobutylpiperidin-4-yl)-1-oxo-1,2,3,4-tetrahydroiso-quinolin-6-yl]oxy}methyl)benzoic acid]"
27,< 7.00,"CCCN1CCC(N2Cc3cc(-c4ccc(C#N)cc4)ccc3C2=O)CC1 [Example 25, 4-[1-Oxo-2-(1-propylpiperidin-4-yl)-2,3-dihydro-1H-isoindol-5-yl]benzonitrile]"

# Test system: not given
# Assay: not given
# Conditions: not given
row,melting point [°C],Structure (SMILES)
1,255 to 256,"O=C(O)c1ccc(Oc2ccc3c(c2)CCN(C2CCN(C4CCC4)CC2)C3=O)cc1 [Example 2, 4-{[2-(1-cyclobutylpiperidin-4-yl)-1-oxo-1,2,3,4-tetrahydroiso-quinolin-6-yl]oxy}benzoic acid]"
2,165 to 166,"COC(=O)c1ccc(COc2ccc3c(c2)CCN(C2CCN(C4CCC4)CC2)C3=O)cc1 [Example 13, methyl 4-({[2-(1-Cyclobutylpiperidin-4-yl)-1-oxo-1,2,3,4-tetrahydroisoquinolin-6-yl]oxy}methyl)benzoate]"
3,170 to 173,"O=C(O)c1ccc(Oc2ccc3c(c2)CCN([C@@H]2CCN(C4CCCC4)C2)C3=O)cc1 [Example 36, (R)-4-(2-(1-cyclopentylpyrrolidin-3-yl)-1-oxo-1,2,3,4-tetrahydro-isoquinolin-6-yloxy)benzoic acid]"
4,269 to 270,"O=C(O)c1ccc(COc2ccc3c(c2)CCN(C2CCN(C4CCC4)CC2)C3=O)cc1 [Example 14, 4-({[2-(1-cyclobutylpiperidin-4-yl)-1-oxo-1,2,3,4-tetrahydroiso-quinolin-6-yl]oxy}methyl)benzoic acid]"

# Reference: patent US20090069370A1, “AZACYCLYLISOQUINOLINONE AND ISOINDOLINONE DERIVATIVES AS HISTAMINE-3 ANTAGONISTS” (Wyeth, priority 2007, published 2009)
